In patent publication US7425640B2, “Substituted 5-carboxyamide pyrazoles and [1,2,4]triazoles as antiviral agents” (priority 2004, dated 2008) one finds IC50 data, which are given here for 36 compounds.

Structures are written as SMILES. A value given as a limit tells only on which side of the number the result lay.

The first assay deals with HCV RNA-dependent RNA polymerase NS5B (Δ21) (Hepatitis C virus genotype 1b, UniProt P26663). The assay can be described thus: Assay for HCV RNA-dependent RNA polymerase activity (SPA, [3H]-GTP incorporation). The format is biochemical. The note with it: read-out: Δ21 Activity (IC50 μM); 50 nM NS5B (Δ21), class symbols. How it is done: Inhibitory activity of the present compounds against HCV RNA-dependent RNA polymerase was assayed according to the methods disclosed in United States Patent Application US2004/038993, content of which is incorporated herein by reference; and those described in Ferrari, E.; Wright-Minogue, J.; Fang, J. W. S.; Baroudy, B. M.; Lau, J. Y. N.; Hong, Z. J. Virol. 1999, 73, 1649.
Sequence of HCV RNA-dependent RNA polymerase NS5B (Δ21) (P26663 2420-2989, stated change not applied): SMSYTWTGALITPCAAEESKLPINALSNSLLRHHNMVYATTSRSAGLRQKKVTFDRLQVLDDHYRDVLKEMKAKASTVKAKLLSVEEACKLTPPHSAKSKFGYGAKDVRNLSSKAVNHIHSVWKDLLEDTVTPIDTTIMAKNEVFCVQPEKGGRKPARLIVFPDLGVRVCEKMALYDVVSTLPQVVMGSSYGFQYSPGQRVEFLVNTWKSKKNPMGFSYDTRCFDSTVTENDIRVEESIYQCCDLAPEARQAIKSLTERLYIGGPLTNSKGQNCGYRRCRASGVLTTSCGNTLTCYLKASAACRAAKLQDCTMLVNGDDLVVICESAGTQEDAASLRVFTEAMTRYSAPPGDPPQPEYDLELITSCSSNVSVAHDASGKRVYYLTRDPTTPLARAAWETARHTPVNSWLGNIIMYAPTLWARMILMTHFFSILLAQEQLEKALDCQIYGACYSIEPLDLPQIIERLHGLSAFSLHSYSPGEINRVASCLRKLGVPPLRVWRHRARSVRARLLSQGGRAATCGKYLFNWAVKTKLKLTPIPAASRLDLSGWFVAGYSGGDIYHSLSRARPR
Briefly, 50 μl reactions containing 20 mM HEPES (pH 7.3), 7.5 mM DTT, 20 units/ml RNasIN, 0.5 μg/ml biotinylated oligoG12, 5 μg/ml polyC, 5 μM GTP, 20 μCi/ml [^3H]-GTP, 10 mM MgCl2, 60 mM NaCl, 100 μg/ml BSA, and 50 nM NS5B (Δ21) were incubated at room temperature for three hours in 96-well plates with or without test compounds. Assay was terminated by the addition of 50 μl 10 mg/ml streptavidin-coated SPA beads supplemented with 100 mM EDTA, and the incorporation of labeled GTP determined by a TopCount Scintillation Counter. IC50 values were calculated from single experiments using 11 serial 2-fold dilutions (0.05-50 μM), and data were considered reliable only when the IC50 value of a positive internal control was within standard deviation range.
Turning to `Nc1c(C(=O)O)nn(CC(=O)N[C@H]2CCCC[C@@H]2OCc2ccccc2)c1C(=O)N[C@H]1CCCC[C@@H]1OCc1ccccc1` [Compound 147], the IC50 was 0.1 to 1 µM.
For the compound `O=C(Cn1nc(NS(=O)(=O)c2ccc([N+](=O)[O-])cc2)cc1C(=O)N[C@H]1CCCC[C@@H]1OCc1ccccc1)N[C@H]1CCCC[C@@H]1OCc1ccccc1` [Compound 85], the IC50 lay in the range of 0.1 to 1 µM.
For `CC1CCC(OCc2ccccc2)C(NC(=O)c2cc(C(=O)O)nn2CS(=O)(=O)N[C@H]2CCCC[C@@H]2OCc2ccccc2)C1` (stereo partly drawn) [Compound 89], the concentration for half-maximal inhibition (IC50) lay in the range of 0.1 to 1 µM.
The same measure, in the same setting: as for `CC(C)CNC(=O)c1cc(C(=O)N[C@H]2CCCC[C@@H]2OCc2ccccc2)n(CC(=O)N[C@H]2CCCC[C@@H]2OCc2ccccc2)n1` [Compound 77], the figure is 0.1 to 1 µM.
On the same count and under the same terms, with `O=C(Cn1nc(C(=O)O)nc1C(=O)Nc1ccccc1OCC1CCCCC1)N[C@H]1CCCC[C@@H]1OCc1ccccc1` [Compound 59] the figure was 0.1 to 1 µM; with `O=C(Cn1nc(C(=O)NCc2ccccc2Cl)cc1C(=O)N[C@H]1CCCC[C@@H]1OCc1ccccc1)N[C@H]1CCCC[C@@H]1OCc1ccccc1` [Compound 81], 0.1 to 1 µM; with `O=C(Cn1nc(C(=O)Nc2nnn[nH]2)nc1C(=O)N[C@H]1CCCC[C@@H]1OCc1ccccc1)N[C@H]1CCCC[C@@H]1OCc1ccccc1` [Compound 115], 0.1 to 1 µM.
Still for that read-out and setting: with `Cc1nn(C)c(Cl)c1S(=O)(=O)Nc1cc(C(=O)N[C@H]2CCCC[C@@H]2OCc2ccccc2)n(CC(=O)N[C@H]2CCCC[C@@H]2OCc2ccccc2)n1` [Compound 112] the figure was 0.1 to 1 µM; with `O=C(Cn1nc(C(=O)NCc2ccc(Cl)cc2Cl)cc1C(=O)N[C@H]1CCCC[C@@H]1OCc1ccccc1)N[C@H]1CCCC[C@@H]1OCc1ccccc1` [Compound 148], 0.1 to 1 µM; with `O=C(Cn1nc(C(=O)NCc2cccc(Cl)c2)cc1C(=O)N[C@H]1CCCC[C@@H]1OCc1ccccc1)N[C@H]1CCCC[C@@H]1OCc1ccccc1` [Compound 70], 0.1 to 1 µM.
Take `CN(C(=O)Cn1nc(C(=O)O)cc1C(=O)N(C)[C@H]1CCCC[C@@H]1OCc1ccccc1)[C@H]1CCCC[C@@H]1OCc1ccccc1` [Compound 158]: the IC50 was in the range of 0.1 to 1 µM.
For `O=C(Cn1nc(C(=O)NCC2CC2)cc1C(=O)N[C@H]1CCCC[C@@H]1OCc1ccccc1)N[C@H]1CCCC[C@@H]1OCc1ccccc1` [Compound 100], the IC50 was 0.1 to 1 µM.
On to `O=C(Cn1nc(NS(=O)(=O)c2cccc3cccnc23)cc1C(=O)N[C@H]1CCCC[C@@H]1OCc1ccccc1)N[C@H]1CCCC[C@@H]1OCc1ccccc1` [Compound 144], for which the half-inhibitory concentration (IC50) fell in the range of 0.1 to 1 µM.
On the same count and under the same terms, with `O=C(Cn1nc(NS(=O)(=O)c2cccc3ccccc23)cc1C(=O)N[C@H]1CCCC[C@@H]1OCc1ccccc1)N[C@H]1CCCC[C@@H]1OCc1ccccc1` [Compound 55] the figure was 0.1 to 1 µM.
Turning to `CCCCNC(=O)Nc1cc(C(=O)N[C@H]2CCCC[C@@H]2OCc2ccccc2)n(CC(=O)N[C@H]2CCCC[C@@H]2OCc2ccccc2)n1` [Compound 124], the IC50 fell in the range of 0.1 to 1 µM.
On the same count and under the same terms, with `O=C(Cn1nc(C(=O)NCCc2cccc(Cl)c2)cc1C(=O)N[C@H]1CCCC[C@@H]1OCc1ccccc1)N[C@H]1CCCC[C@@H]1OCc1ccccc1` [Compound 94] the figure was 0.1 to 1 µM.
As to `CN(C)c1cccc2c(S(=O)(=O)Nc3cc(C(=O)N[C@H]4CCCC[C@@H]4OCc4ccccc4)n(CC(=O)N[C@H]4CCCC[C@@H]4OCc4ccccc4)n3)cccc12` [Compound 113], the IC50 was 0.1 to 1 µM.
With `O=C(Cn1nc(C(=O)O)nc1C(=O)N[C@H]1CCCC[C@@H]1OCc1ccccc1)N[C@H]1CCCC[C@@H]1OCc1ccccc1` [Compound 66], the IC50 was in the range of 0.1 to 1 µM.
On the same count and under the same terms, with `O=C(Cn1nc(NC(=O)c2ccccc2)cc1C(=O)N[C@H]1CCCC[C@@H]1OCc1ccccc1)N[C@H]1CCCC[C@@H]1OCc1ccccc1` [Compound 91] the figure was 0.1 to 1 µM.

The assay is the same for the next values; noted with them: Δ21 Activity (IC50 μM), 50 nM NS5B (Δ21), class symbols.
Regarding `CCOC(=O)c1cc(C(=O)N[C@H]2CCCC[C@@H]2OCc2ccccc2)n(C(C)C(=O)N[C@H]2CCCC[C@@H]2OCc2ccccc2)n1` (stereo partly drawn) [Compound 186], the IC50 was more than 1 µM.
As to `O=C(Cn1nc(C(=O)O)cc1C(=O)Nc1ccc(F)cc1OCC1CCCCC1)N[C@H]1CCCC[C@@H]1OCc1ccccc1` [Compound 30], the IC50 lay within 0.05 to 0.1 µM.
With `Cc1ccc(OCC2CCC2)c(NC(=O)Cn2nc(C(=O)O)cc2C(=O)N[C@H]2CCCC[C@@H]2OCc2ccccc2)c1` [Compound 43], the IC50 fell in the range of 0.05 to 0.1 µM.
On the same count and under the same terms, as for `O=C(Cn1nc(NS(=O)(=O)c2cccc(Br)c2)cc1C(=O)N[C@H]1CCCC[C@@H]1OCc1ccccc1)N[C@H]1CCCC[C@@H]1OCc1ccccc1` [Compound 36], the figure is 0.05 to 0.1 µM.
Consider `O=C(Cn1nc(NS(=O)(=O)c2ccc(I)cc2)cc1C(=O)N[C@H]1CCCC[C@@H]1OCc1ccccc1)N[C@H]1CCCC[C@@H]1OCc1ccccc1` [Compound 19], for which the IC50 was in the range of 0.05 to 0.1 µM.
In turn, `O=C(Cn1nc(NS(=O)(=O)c2ccc(Br)c(C(=O)O)c2)cc1C(=O)N[C@H]1CCCC[C@@H]1OCc1ccccc1)N[C@H]1CCCC[C@@H]1OCc1ccccc1` [Compound 17] came in with an IC50 of less than 0.05 µM.
Still for that read-out and setting: as for `COc1ccc(S(=O)(=O)Nc2cc(C(=O)N[C@H]3CCCC[C@@H]3OCc3ccccc3)n(CC(=O)N[C@H]3CCCC[C@@H]3OCc3ccccc3)n2)cc1` [Compound 41], the figure is 0.05 to 0.1 µM; as for `N#Cc1ccc(S(=O)(=O)Nc2cc(C(=O)N[C@H]3CCCC[C@@H]3OCc3ccccc3)n(CC(=O)N[C@H]3CCCC[C@@H]3OCc3ccccc3)n2)cc1` [Compound 42], 0.05 to 0.1 µM; as for `N#Cc1cc(C(=O)N[C@H]2CCCC[C@@H]2OCc2ccccc2)n(CC(=O)N[C@H]2CCCC[C@@H]2OCc2ccccc2)n1` (stereo in doubt) [Compound 187, 2-[(2-benzyloxy-cyclohexylcarbamoyl)-methyl]-5-cyano-2H-pyrazole-3-carboxylic acid (2-benzyloxy-cyclohexyl)-amide], more than 1 µM.
Take `O=C(Cn1nc(C(=O)O)cc1C(=O)Nc1ccc(F)cc1OCC1CCCCC1)N[C@H]1CCCC[C@@H]1OCc1ccccc1` [Compound 10]: the IC50 was less than 0.05 µM.
For `O=C(Cn1nc(NS(=O)(=O)c2cccc(F)c2)cc1C(=O)N[C@H]1CCCC[C@@H]1OCc1ccccc1)N[C@H]1CCCC[C@@H]1OCc1ccccc1` [Compound 31], the IC50 lay within 0.05 to 0.1 µM.
In the case of `C[C@@H](NC(=O)c1cc(C(=O)N[C@H]2CCCC[C@@H]2OCc2ccccc2)n(CC(=O)N[C@H]2CCCC[C@@H]2OCc2ccccc2)n1)c1cccc2ccccc12` [Compound 7], the IC50 is less than 0.05 µM.

Staying with this assay, now noted: Δ21 Activity (IC50 μM), 50 nM NS5B (Δ21), numeric values.
`Cc1ccc(OCc2ccsc2)c(NC(=O)c2cc(C(=O)O)nn2CC(=O)N[C@H]2CCCC[C@@H]2OCc2ccccc2)c1` [drawing 247] had an IC50 of 0.032 µM.
In turn, `COc1cccc(NC(=O)c2cc(C(=O)N[C@H]3CCCC[C@@H]3OCc3ccccc3)n(CC(=O)N[C@H]3CCCC[C@@H]3OCc3ccccc3)n2)c1` [drawing 255] displayed an IC50 of 0.045 µM.
On the same count and under the same terms, with `O=C(Cn1nc(NS(=O)(=O)c2ccc(O)c(C(=O)O)c2)cc1C(=O)N[C@H]1CCCC[C@@H]1OCc1ccccc1)N[C@H]1CCCC[C@@H]1OCc1ccccc1` the figure was 0.074 µM.
Same read-out and setting: with `O=C(Cn1nc(NS(=O)(=O)c2ccc(Cl)cc2)cc1C(=O)N[C@H]1CCCC[C@@H]1OCc1ccccc1)N[C@H]1CCCC[C@@H]1OCc1ccccc1` [drawing 250] the figure was 0.036 µM.
Turning to `Cc1ccc(OCc2ccccc2)c(NC(=O)c2cc(-c3nnn[nH]3)nn2CC(=O)N[C@H]2CCCC[C@@H]2OCc2ccccc2)c1` [drawing 240], the IC50 came to 0.02 µM.
